In US11319313B2, “Crystalline forms of deuterium-enriched pioglitazone” (Poxel SA, priority 2020, dated 2022):
Marks after values point to notes of the source that are not given here.

How the values were obtained:
[1] = Dog pharmacokinetic (PK) study, single oral administration; assay type: in vivo, Beagle dogs
Description: The 3 Beagle male dogs were fasted before dosing. Then all test drugs were administered by the oral route using API in a capsule. [table] Food was given no sooner than one hour after dose administration on the days of treatment. Each administration was separated by a wash-out period of at least 2 days. […] Predose (just before dosing) and then […] after dosing.

[2] = Phase Ia single-dose PK study in healthy human subjects; assay type: in vivo; conditions: single oral dose 22.5 mg capsule
Description: PXL065, orally administered.
(§1) Actos®, orally administered. Dose=1×45 mg, tablet.

[3] = Phase Ib repeated-dose PK study in healthy human subjects; assay type: in vivo; conditions: for AUC0-24,ss, total pioglitazone / AUC0-24, ss dose normalized, total pioglitazone: steady state; for AUC0-24,ss, total pioglitazone: fasting
Description: Subjects were screened within 28 days before their first dose of study medication. They stayed in the clinic from 1 day before dosing (Day −1) until at least 48 hours after their final dose of trial medication (Day 11).
Each dose group was composed of 4 males and 4 females in a 3:1 active/placebo ratio. • One (1) Actos® group: 6 subjects (3 males and 3 females) were given Actos®. Placebo was not given to any subjects in this group.
Subjects received a single oral dose of study drug (7.5, 15, or 30 mg tablets of PXL065 or matching placebo tablets, or 45 mg Actos® tablets), under fasting conditions on Day 1. […] All study drugs were dosed in fasting conditions.
The PXL065 PK parameters of the three single oral doses on Day 1 and after seven daily administrations on Day 9 were compared to the Actos® PK parameters on Day 1 and after seven daily administrations on Day 9.
PXL065, orally administered. Dose=1×7.5 mg tablet, 1×15 mg tablet, or 1×30 mg tablet.
as §1
One single oral administration of PXL065 or matching placebo or Actos® was given on Day 1 in fasting conditions followed by once daily multiple oral administrations of PXL065 or matching placebo or Actos® from Day 3 to Day 9 (7 days) in fasting conditions.
Pharmacokinetics: Plasma samples were analyzed using a validated assay. The samples from all evaluable subjects were analyzed. Samples from subjects who experienced emesis within 4 hours of dosing were not analyzed.
Plasma PK parameters included, but were not limited to: • Following single dose on Day 1 and Day 3 (for PXL065 groups): tmax, tlag, Cmax, AUC0-last, AUC0-24, AUC0-inf, λz, t1/2, % AUCext, CL/F, Vz/F, Cmax/Dose, AUC0-last/Dose, AUC0-inf/Dose and MRT each calculated using compartmental or non-compartmental methods as appropriate for the deuterated and protonated (R)- and (S)-enantiomers of pioglitazone. • Day 4 to Day 9: Ctrough for the deuterated and protonated (R)- and (S)-enantiomers of pioglitazone; and • Following repeated doses on Day 9: tmax, Cmax, Cavg, tlag, AUC0-last, AUC0-24, AUC0-inf, λz, t1/2, % AUCext, CLss/F, Vzss/F, MRT, PTF, Rac(AUC0-24), Rac(Cmax) SR(AUC), Cmax/Dose, AUC0-last/Dose, AUC0-inf/Dose, AUC0-24/Dose. Safety

[4] = 13-week dog toxicology study, toxicokinetics on day 91; conditions: for AUC0-24, ss dose normalized, total pioglitazone: Day 91, 5 mg/kg/day; for AUC0-24,ss, total pioglitazone: Day 91, oral capsule 5 mg/kg/day
[5] = single oral 5 mg/kg (capsule), fasted male dogs, plasma, mean

SMILES: [2H][C@]1(Cc2ccc(OCCc3ccc(CC)cn3)cc2)SC(=O)NC1=O [PXL065, deuterium-enriched (R)-pioglitazone]
- AUC0-24, Total Pio ([1]; dog, in vivo, po, 5 mg/kg): 7000 ng·h/mL
- AUC0-24, Total R-pio ([1]; dog, in vivo, po, 5 mg/kg): 5770 ng·h/mL
- AUC0-24, Total S-pio ([1]; dog, in vivo, po, 5 mg/kg): 1240 ng·h/mL
- Cmax, Total Pio ([1]; dog, in vivo, po, 5 mg/kg): 1520 ng/mL
- Cmax, Total R-pio ([1]; dog, in vivo, po, 5 mg/kg): 1330 ng/mL
- Cmax, Total S-pio ([1]; dog, in vivo, po, 5 mg/kg): 227 ng/mL
- Tmax, Total Pio ([1]; dog, in vivo, po, 5 mg/kg): 1 h
- Tmax, Total R-pio ([1]; dog, in vivo, po, 5 mg/kg): 1 h
- Tmax, Total S-pio ([1]; dog, in vivo, po, 5 mg/kg): 2 h
- T1/2z, Total Pio [1, 5]: 1.46^a h
- T1/2z, Total R-pio [1, 5]: 1.43^a h
- T1/2z, Total S-pio [1, 5]: 1.62^a h
- AUCinf dose normalized, total pioglitazone [2]: 618 ng·h/mL/mg
- AUCinf, total pioglitazone ([2]; fasted healthy subjects): 13896 ng·h/mL
- AUC0-24,ss, total pioglitazone ([3]; 15 mg tablet once daily, repeated doses): 6505 ng·h/mL
- AUC0-24, ss dose normalized, total pioglitazone ([3]; 15 mg tablet): 434 ng·h/mL/mg
- AUC0-24,ss, total pioglitazone ([3]; 30 mg tablet once daily, repeated doses): 13802 ng·h/mL
- AUC0-24, ss dose normalized, total pioglitazone ([3]; 30 mg tablet): 460 ng·h/mL/mg
- Increase of relative bioavailability compared to Actos ([3]; humans, repeated doses): 55%-65%
- AUC0-24, ss dose normalized, total pioglitazone ([4]; female dogs (F)): 1762 ng·h/mL
- AUC0-24,ss, total pioglitazone ([4]; female dogs (F)): 8710 ng·h/mL
- AUC0-24, ss dose normalized, total pioglitazone ([4]; male dogs (M)): 2180 ng·h/mL
- AUC0-24,ss, total pioglitazone ([4]; male dogs (M)): 10900 ng·h/mL
